Reference: patent publication US11286268B1, “EIF4E-inhibiting compounds and methods” (EFFECTOR THERAPEUTICS, INC., priority 2019, dated 2022)
Like-named read-outs stand apart in the source and are kept apart here.

Target: recombinant eIF4E (Homo sapiens (Human), UniProt P06730)
Test: Fluorescence polarization competition assay for eIF4E binding potency
Procedure, shortened: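 Competitive displacement format: compounds compete with a fluorescent m7GDP tracer (20 nM) for 75 nM recombinant eIF4E. Incubation is 30 min at room temperature, protected from light, with 1% DMSO. Polarization read gives IC50 over eight 3-fold concentrations.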

[1] = fluorescence polarization competition, 75 nM recombinant eIF4E, 20 nM EDA-m7GDP-ATTO-550, IC50 class, read-out: elF4E FP
[2] = inhibition of eIF4E/EDA-m7GDP-ATTO-550 binding by 50%, Table 4B calculated values, read-out: IC50
[3] = inhibition of eIF4E/EDA-m7GDP-ATTO-550 binding, calculated IC50 values, Table 4B, read-out: IC50

Chain of recombinant eIF4E (P06730 whole entry): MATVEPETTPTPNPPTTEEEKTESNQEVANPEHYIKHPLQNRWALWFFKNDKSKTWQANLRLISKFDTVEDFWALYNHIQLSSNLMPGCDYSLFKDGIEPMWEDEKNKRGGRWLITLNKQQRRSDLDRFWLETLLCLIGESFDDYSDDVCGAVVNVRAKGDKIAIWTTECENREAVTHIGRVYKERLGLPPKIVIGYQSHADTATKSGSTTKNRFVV

IC50 [1] | IC50 [2] | IC50 [3] | SMILES
< 50 nM | 17.1 nM | – | Cc1nc2cnc(N(C)C3CCN(CCOC(F)(F)F)CC3)c(C#N)c2c(=O)n1CC#Cc1ccc(Cl)cc1-c1ccnc2c(C(=O)O)csc12 [compound 1170]
< 50 nM | 13 nM | – | Cc1nc2cnc(N(C)C3CCN(C4CC4)CC3)c(C#N)c2c(=O)n1CC#Cc1ccc(Cl)cc1-c1ccnc2c(C(=O)O)csc12 [compound 1171]
< 50 nM | 14.2 nM | – | Cc1nc2cnc(N(C)C3CCN([C@H]4C[C@@H](OC(F)F)C4)CC3)c(C#N)c2c(=O)n1CC#Cc1ccc(Cl)cc1-c1ccnc2c(C(=O)O)csc12 [compound 1172]
< 50 nM | 34.3 nM | – | CCN(c1ncc2nc(C)n(CC#Cc3ccc(Cl)cc3-c3ccnc4c(C(=O)O)csc34)c(=O)c2c1C#N)C1CCN(CC(F)(F)F)CC1 [compound 1176]
< 50 nM | 22.9 nM | – | CC(=O)c1csc2c(-c3cc(Cl)ccc3C#CCn3c(C)nc4cc(C(F)(F)F)c(N5CC6(C5)CN(C5CC5)C6)c(C#N)c4c3=O)ccnc12 [compound 1178]
< 50 nM | – | – | Cc1nc2cnc(N3CCC(N4CCC(F)(F)CC4)CC3)c(C#N)c2c(=O)n1CC#Cc1ccc(Cl)cc1-c1ccnc2c(C(=O)O)csc12 [compound 1180]
< 50 nM | 13.6 nM | – | Cc1nc2cnc(N(C)C3CCN(C4(C(F)F)COC4)CC3)c(C#N)c2c(=O)n1CC#Cc1ccc(Cl)cc1-c1ccnc2c(C(=O)O)csc12 [compound 1182]
< 50 nM | 23.2 nM | – | Cc1nc2cnc(N(C)C3CCN(CC(C)(F)F)CC3)c(C#N)c2c(=O)n1CC#Cc1ccc(Cl)cc1-c1ccnc2c(C(=O)NS(=O)(=O)C3COC3)csc12 [compound 1183]
< 50 nM | – | – | Cc1nc2cnc(N3CCC(N4CC(OC(F)F)C4)CC3)c(C#N)c2c(=O)n1CC#Cc1ccc(Cl)cc1-c1ccnc2c(C(=O)O)csc12 [compound 1187]
< 50 nM | – | 12.8 nM | CCN(c1ncc2nc(C)n(CC#Cc3ccc(Cl)cc3-c3ccnc4c(C(=O)O)csc34)c(=O)c2c1C#N)C1CCN(CC(F)(F)C(F)F)CC1 [compound 1191]
< 50 nM | – | 13 nM | CCc1cc(-c2cc(Cl)ccc2OCCn2c(C)nc3c(Cl)nc(C4CC4)c(C#N)c3c2=O)c2scc(C(=O)O)c2n1 [compound 1198]
< 50 nM | – | 14.8 nM | Cc1cc(-c2cc(Cl)ccc2OCCn2c(C)nc3cc(C(F)(F)F)c(CCN(C)C)c(C#N)c3c2=O)c2sc(C)c(C(=O)O)c2n1 [compound 1200]
< 50 nM | – | 9.15 nM | Cc1cc(-c2cc(Cl)ccc2OCCn2c(C)nc3cnc(N4[C@@H]5C[C@H]4CN(C)C5)c(C#N)c3c2=O)c2sc(C)c(C(=O)O)c2n1 [compound 1203]
< 50 nM | – | 48.9 nM | COc1cc2nc(C)n(CCOc3ccc(Cl)cc3-c3cc(C)nc4c(C(=O)O)c(C)sc34)c(=O)c2c(C#N)c1N1CCN(C)CC1 [compound 1208]
50 to 1000 nM | – | 98 nM | Cc1cc(-c2cc(Cl)ccc2OCCn2c(C)nc3cc(S(C)(=O)=O)c(N4CCN(C)CC4)cc3c2=O)c2scc(C(=O)O)c2n1 [compound 1209]
< 50 nM | – | 44.2 nM | Cc1nc2cc(C(F)(F)F)c(N3CCN(C)CC3)c(C#N)c2c(=O)n1CC#Cc1ccc(Cl)cc1-c1ccnc2c(C(=O)O)csc12 [compound 1212]
< 50 nM | – | 25.7 nM | CCc1cc(-c2cc(F)c(F)cc2OCCn2c(C)nc3cc(C(F)(F)F)c(N4CCN(C)CC4)c(C#N)c3c2=O)c2scc(C(=O)O)c2n1 [compound 1215]
< 50 nM | – | 13.1 nM | Cc1ccc(-c2cc(Cl)ccc2OCCn2c(C)nc3cc(C(F)(F)F)c(N4CCN(C)CC4)c(C#N)c3c2=O)c2scc(C(=O)O)c12 [compound 1218]

Continued, compound first:

SMILES | IC50 [1] | IC50 [2] | IC50 [3]
Cc1nc2cnc(N(C)C3CCN(CC4(F)CCC4)CC3)c(C#N)c2c(=O)n1CC#Cc1ccc(Cl)cc1-c1ccnc2c(C(=O)O)csc12 [compound 1174] | < 50 nM | 9.32 nM | –
Cc1nc2cnc(N(C)C3CCN([C@@H]4C[C@H]4C(F)(F)F)CC3)c(C#N)c2c(=O)n1CC#Cc1ccc(Cl)cc1-c1ccnc2c(C(=O)O)csc12 [compound 1175] | < 50 nM | 22.1 nM | –
CCN(c1ncc2nc(C)n(CC#Cc3ccc(Cl)cc3-c3ccnc4c(C(=O)O)csc34)c(=O)c2c1C#N)C1CCN(CC(C)(F)F)CC1 [compound 1177] | < 50 nM | 34.2 nM | –
Cc1nc2cc(C(F)(F)F)c(N3CCN(C4CC4)CC3)c(C#N)c2c(=O)n1CCOc1ccc(Cl)cc1-c1ccnc2c(C(=O)NS(C)(=O)=O)csc12 [compound 1179] | < 50 nM | 14.7 nM | –
Cc1nc2cnc(N(C)C3CCN(C4CC(F)C4)CC3)c(C#N)c2c(=O)n1CC#Cc1ccc(Cl)cc1-c1ccnc2c(C(=O)O)csc12 (stereo not shown) [compound 1181] | < 50 nM | 13.7 nM | –
CCN(c1ncc2nc(C)n(CC#Cc3ccc(Cl)cc3-c3ccnc4c(C(=O)O)csc34)c(=O)c2c1C#N)C1CCN(C2CC(F)(F)C2)CC1 [compound 1184] | < 50 nM | 9.32 nM | –
Cc1nc2cnc(N(C)C3CCN(CC4(F)COC4)CC3)c(C#N)c2c(=O)n1CC#Cc1ccc(Cl)cc1-c1ccnc2c(C(=O)O)csc12 [compound 1185] | < 50 nM | 17.6 nM | –
CCN(c1ncc2nc(C)n(CC#Cc3ccc(Cl)cc3-c3ccnc4c(C(=O)O)csc34)c(=O)c2c1C#N)C1CCN(C2COC2)CC1 [compound 1186] | < 50 nM | 20.1 nM | –
Cc1nc2cnc(N(C)C3CCN(CC4CC(OC(F)F)C4)CC3)c(C#N)c2c(=O)n1CC#Cc1ccc(Cl)cc1-c1ccnc2c(C(=O)O)csc12 (stereo not shown) [compound 1189] | < 50 nM | – | 13.4 nM
Cc1nc2cnc(N(C)C3CCN(CCC(C)(F)F)CC3)c(C#N)c2c(=O)n1CC#Cc1ccc(Cl)cc1-c1ccnc2c(C(=O)O)csc12 [compound 1190] | < 50 nM | – | 7.3 nM
Cc1cc(-c2cc(Cl)ccc2OCCn2c(C)nc3cc(C(F)(F)F)c(-c4ccnc5c4CCN5)c(C#N)c3c2=O)c2scc(C(=O)O)c2n1 [compound 1192] | < 50 nM | – | 48.8 nM
Cc1cc(-c2cc(Cl)ccc2OCCn2c(C)nc3c(=O)n(C)c(-c4ccccc4)c(C#N)c3c2=O)c2scc(C(=O)O)c2n1 [compound 1193] | < 50 nM | – | –
Cc1cc(-c2cc(Cl)ccc2OCCn2c(C)nc3cnc([C@H]4C[C@@H](O)C4)c(C#N)c3c2=O)c2scc(C(=O)O)c2n1 [compound 1194] | < 50 nM | – | 15.3 nM
COC(=O)c1csc2c(-c3cc(Cl)ccc3C#CCn3c(C)nc4cnc(N(C)C5CCN(CC(F)(F)F)CC5)c(C#N)c4c3=O)ccnc12 [compound 1195] | < 50 nM | – | 13.1 nM
Cc1cc(-c2cc(Cl)ccc2OCCn2c(C)nc3cc(C(F)(F)F)c(OCC(F)F)c(C#N)c3c2=O)c2scc(C(=O)O)c2n1 [compound 1197] | < 50 nM | – | 5.93 nM
CCc1cc(-c2cc(Cl)ccc2OCCn2c(C)nc3c(N(C)C)nc(C4CC4)c(C#N)c3c2=O)c2scc(C(=O)O)c2n1 [compound 1199] | < 50 nM | – | 18.2 nM
Cc1cc(-c2cc(Cl)ccc2OCCn2c(C)nc3cc(Cl)c(N4CCN(C(C)(C)C)CC4)c(C#N)c3c2=O)c2sc(C)c(C(=O)O)c2n1 [compound 1201] | < 50 nM | – | 22.8 nM
Cc1cc(-c2cc(Cl)ccc2OCCn2c(C)nc3cnc(N4C[C@H]5C[C@@H](C4)N5C)c(C#N)c3c2=O)c2sc(C)c(C(=O)O)c2n1 [compound 1202] | < 50 nM | – | 19.7 nM
COC(=O)c1csc2c(-c3cc(Cl)ccc3OCCn3c(C)nc4cc(C(F)(F)F)c(N5CCN(C6CC6)CC5)c(C#N)c4c3=O)ccnc12 [compound 1206] | < 50 nM | – | 32.5 nM
Cc1cc(-c2cc(Cl)ccc2OCCn2c(C)nc3cc(C(F)(F)F)c(N4CCN(C)C(C(F)(F)F)C4)c(C#N)c3c2=O)c2sc(C)c(C(=O)O)c2n1 (stereo not shown) [compound 1207] | 50 to 1000 nM | – | 121 nM
Cc1sc2c(-c3cc(Cl)ccc3OCCn3c(C)nc4cc(C(F)(F)F)c(N5CCN(C)CC5)cc4c3=O)ccnc2c1C(=O)O [compound 1210] | < 50 nM | – | 48.3 nM
Cc1cc(-c2cc(Cl)ccc2OCCc2nc3cc(N4CCN(C)CC4)c(C(F)(F)F)cc3nc2C)c2scc(C(=O)O)c2n1 [compound 1211] | 50 to 1000 nM | – | > 1000 nM
Cc1cc(-c2cc(Cl)ccc2C#CCn2c(C)nc3cc(C(F)(F)F)c(N4CCN(C)CC4)c(C#N)c3c2=O)c2scc(C(=O)O)c2n1 [compound 1213] | < 50 nM | – | 42.7 nM
Cc1nc2cc(C(F)(F)F)c(N3CCN(C)CC3)c(C#N)c2c(=O)n1CCOc1ccc(Cl)cc1-c1ccc(F)c2c(C(=O)O)csc12 [compound 1214] | < 50 nM | – | 5.08 nM
CCc1cc(-c2cc(Cl)ccc2OCCn2c(C)nc3cnc([C@@H]4[C@@H]5CN(C)C[C@@H]54)c(C#N)c3c2=O)c2scc(C(=O)O)c2n1 [compound 1216] | < 50 nM | – | 10.3 nM
Cc1cc(-c2cc(Cl)ccc2OCCn2c(C)nc3c(-c4ccccc4)nc(N4CCN(C)CC4)c(C#N)c3c2=O)c2scc(C(=O)O)c2n1 [compound 1217] | < 50 nM | – | 24.2 nM
CCc1cc(-c2cc(Cl)ccc2OCCn2c(C)nc3cnc(N4CCN(C)C5CC54)c(C#N)c3c2=O)c2scc(C(=O)O)c2n1 (stereo not shown) [compound 1219] | < 50 nM | – | 3.99 nM
CCc1cc(-c2cc(Cl)ccc2OCCn2c(C)nc3cnc(N4CCNC5CC54)c(C#N)c3c2=O)c2scc(C(=O)O)c2n1 (stereo not shown) [compound 1220] | < 50 nM | – | 13.1 nM
Cc1nc2cc(C(F)(F)F)c(N3CCN(C)CC3)c(C#N)c2c(=O)n1CCOc1ccc(Cl)cc1-c1ccnc(C(=O)O)c1 [compound 1221] | < 50 nM | – | 30 nM
